Results published in US7625948B2, “Ester compound and medicinal use thereof” (Japan Tobacco Inc., priority 2002, dated 2009).
Like-named read-outs stand apart in the source and are kept apart here.

Legend:
HepG2 cells = test: Test Example 2: inhibition of apolipoprotein B secretion from HepG2 cells, ELISA (also used for metabolites in Test Example 8); format: cell-based; details: Homo sapiens
Method in brief: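 HepG2 cells cultured 24 h, then exposed 24 h to compounds or metabolites in medium with 0.5% DMSO. Secreted apo B in supernatant quantified by sandwich ELISA (HRP, ABTS, 405 nm) against purified human apo B standard; % inhibition vs DMSO group, IC50 derived.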

[1] = biological target: T1, Microsomal triglyceride transfer protein (MTP) from bovine liver (Bos taurus, UniProt P55156); test: Test Example 1: inhibition of interliposomal triglyceride (TG) transfer activity by MTP (also used for metabolites in Test Example 8); format: biochemical
T1 construct: from tissue; host or cells: bovine liver
T1 sequence (P55156 12-887): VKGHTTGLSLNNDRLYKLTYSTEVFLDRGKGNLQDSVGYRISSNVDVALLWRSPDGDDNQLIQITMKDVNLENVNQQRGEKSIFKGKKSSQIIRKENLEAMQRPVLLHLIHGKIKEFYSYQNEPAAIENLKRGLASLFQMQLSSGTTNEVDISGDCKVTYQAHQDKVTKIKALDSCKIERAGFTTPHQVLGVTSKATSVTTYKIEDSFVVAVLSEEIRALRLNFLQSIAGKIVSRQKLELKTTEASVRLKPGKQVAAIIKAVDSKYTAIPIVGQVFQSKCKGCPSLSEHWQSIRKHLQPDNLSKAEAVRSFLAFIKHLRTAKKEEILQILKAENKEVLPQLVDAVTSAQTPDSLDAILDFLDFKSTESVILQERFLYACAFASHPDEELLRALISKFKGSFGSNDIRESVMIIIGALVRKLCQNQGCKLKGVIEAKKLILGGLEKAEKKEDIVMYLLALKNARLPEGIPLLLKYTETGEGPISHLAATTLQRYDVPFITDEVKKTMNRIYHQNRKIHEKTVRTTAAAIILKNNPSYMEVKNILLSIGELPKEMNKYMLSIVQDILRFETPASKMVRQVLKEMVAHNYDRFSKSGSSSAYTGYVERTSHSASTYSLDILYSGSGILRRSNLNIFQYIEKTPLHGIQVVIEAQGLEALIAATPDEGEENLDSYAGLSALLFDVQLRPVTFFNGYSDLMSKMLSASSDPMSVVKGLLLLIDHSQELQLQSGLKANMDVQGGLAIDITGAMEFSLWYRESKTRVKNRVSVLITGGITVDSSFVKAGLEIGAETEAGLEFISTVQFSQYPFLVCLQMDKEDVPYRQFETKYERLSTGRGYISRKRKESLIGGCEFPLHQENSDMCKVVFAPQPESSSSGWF
T1 sequence (P05307 21-510 partner): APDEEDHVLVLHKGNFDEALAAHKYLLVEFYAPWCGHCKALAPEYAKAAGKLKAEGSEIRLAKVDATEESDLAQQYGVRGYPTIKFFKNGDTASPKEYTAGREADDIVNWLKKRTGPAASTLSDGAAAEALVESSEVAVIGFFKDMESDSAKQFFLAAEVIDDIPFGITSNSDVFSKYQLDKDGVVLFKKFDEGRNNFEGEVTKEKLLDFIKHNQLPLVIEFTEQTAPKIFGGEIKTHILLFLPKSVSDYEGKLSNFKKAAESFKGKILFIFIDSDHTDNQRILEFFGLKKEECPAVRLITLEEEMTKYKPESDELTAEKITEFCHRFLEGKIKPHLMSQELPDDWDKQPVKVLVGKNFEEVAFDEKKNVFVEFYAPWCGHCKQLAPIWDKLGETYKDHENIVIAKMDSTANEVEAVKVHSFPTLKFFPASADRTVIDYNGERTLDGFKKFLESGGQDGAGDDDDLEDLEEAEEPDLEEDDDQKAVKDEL
Procedure: Inhibition of Interliposomal Triglyceride (TG) Transfer Activity by MTP
Microsomal triglyceride transfer protein (MTP) from bovine liver was partially purified in such a way described below. A buffer (50 mM Tris, 250 mM sucrose, 1 mM EDTA, 0.02% NaN3 (pH 7.4)) for making a homogenate preparation was added to bovine liver, and the mixture was homogenated under ice-cooling, then centrifuged at 10,000×g (4° C., 30 minutes). The supernatant was adjusted to pH 5.1 with hydrochloric acid, and stirred for 30 minutes. The solution was further centrifuged at 10,000×g (4° C., 30 minutes), and 1 mM Tris buffer was added to the precipitated residue, and the mixture was adjusted to pH 8.6 with sodium hydroxide. After addition of 2.7M ammonium sulfate solution, the mixture was stirred for 30 minutes, then centrifuged at 10,000×g (4° C., 40 minutes). The resulting supernatant was served as a crude extraction fraction of MTP and stored at −80° C. under freezing. In its practical use, the crude extraction fraction of MTP was purified by column chromatography on diethylaminoethyl (DEAE) Sepharose using FPLC (Fast Performance Liquid Chromatography) system, and the purified MTP was used for the test.
Small unilamellar-vesicle (SUV) liposome (donor, 0.25 mol % triolein, 5 mol % cardiolipin) labeled with ^14C-triolein and non-labeled SUV liposome (acceptor, 0.25 mol % triolein) were prepared. A fixed amount of donor and acceptor, and MTP were mixed with a sample dissolved in DMSO or with DMSO. The mixture was incubated in a 15 mM Tris hydrochloride buffer (pH 7.4) containing 40 mM sodium chloride, 1 mM EDTA (ethylenediaminetetraacetic acid), 0.02% NaN3 and 0.5% bovine serum albumin at 37° C. for one hour. After completion of the incubation, a suspension of DEAE cellulose (50% v/v) in 15 mM Tris hydrochloride buffer (pH 7.4) was added to the above solution, and the mixture was centrifuged to separate the donor and the acceptor. The radioactivity in the acceptor was measured by liquid scintillation counter. The value obtained by subtracting the radioactivity in the blank from the amount of radioactivity in the acceptor of a DMSO group was determined as MTP-mediated TG transfer activity, and it was compared with the value obtained by subtracting the radioactivity in the blank from the radioactivity in a sample group. The blank was prepared by adding 15 mM Tris-HCl buffer (pH 7.4) in place of MTP. Inhibition rate (%) was calculated from the values obtained according to the following equation.
Inhibition rate (%)=100×(1 minus ((radioactivity of sample group minus radioactivity of blank group)/(radioactivity of DMSO group minus radioactivity of blank group))).
50% Inhibition rate (IC50) was determined on the basis of the above equation.
Inhibitory Activity on MTP and apo B Secretion Inhibition by Metabolites
In a similar manner to Test Examples 1 and 2, the activity of metabolites was assayed.

[2] = 24 hours, apo B in supernatant by ELISA, read-out: Test Example 2 Inhibition of apo B secretion IC50
[3] = MTP-mediated 14C-triolein transfer between liposomes, 37° C., one hour, read-out: Test Example 1 MTP inhibition IC50
[4] = main metabolites of the compounds (Test Example 8), read-out: Inhibition of apo B secretion IC50
[5] = main metabolites of the compounds (Test Example 8), read-out: MTP inhibition IC50

IC50 (HepG2 cells; [2]) [nM] | IC50 [1, 3] [nM] | IC50 (HepG2 cells; [4]) [nM] | IC50 [1, 5] [nM] | SMILES
58.3 | 3.47 | – | – | O=C(OCCC1(C(=O)NCC(F)(F)F)c2ccccc2-c2ccccc21)c1ccc(NC(=O)c2ccccc2-c2ccc(C(F)(F)F)cc2)cc1 [Example 6, 4-[(4′-Trifluoromethylbiphenyl-2-carbonyl)amino]benzoic acid 2-[9-(2,2,2-trifluoroethylcarbamoyl)-9H-fluoren-9-yl]ethyl ester]
100 | 23 | – | – | CCOC(=O)C(COC(=O)Cc1ccc(NC(=O)c2ccccc2-c2ccc(C(F)(F)F)cc2)cc1C(F)(F)F)(C(=O)OCC)c1ccccc1 [Example 1-34]
0.61 | 2.7 | – | – | CCOC(=O)C(COC(=O)Cc1ccc(NC(=O)c2ccccc2-c2ccc(C(F)(F)F)cc2)c(C(=O)N2CCCCC2)c1)(C(=O)OCC)c1ccccc1 [Example 2-23]
510 | 5.2 | – | – | O=C(Nc1ccccc1-c1ccccc1)c1ccc(C(=O)OCCC2(C(=O)NCC(F)(F)F)c3ccccc3-c3ccccc32)cc1 [Example 6-3]
750 | 4.5 | – | – | CCOC(=O)C(COC(=O)Cc1ccc(NC(=O)c2ccccc2-c2ccc(OC)cc2)cc1)(C(=O)OCC)c1ccccc1 [Example 1-47]
35 | 4.4 | – | – | CCCCNC(=O)C(COC(=O)Cc1ccc(NC(=O)c2ccccc2-c2ccc(C(F)(F)F)cc2)cc1)(C(=O)NCCCC)c1ccccc1 [Example 1-42]
920 | 9.8 | – | – | CCNC(=O)C(CCOC(=O)c1ccc(OC(=O)c2ccccc2-c2ccc(C(F)(F)F)cc2)cc1)(C(=O)NCC)c1ccccc1 [Example 6-21]
690 | 10 | – | – | CCCCOc1ccccc1C(=O)Nc1ccc(CC(=O)OCC(C(=O)NCC)(C(=O)NCC)c2ccccc2)cc1 [Example 1-52]
87 | 6.3 | – | – | CCOC(=O)C(CCOC(=O)c1ccc(NC(=O)c2ccccc2-c2ccc(C(F)(F)F)cc2)cc1)(C(=O)OCC)c1ccccc1 [Example 6-14]
150 | 2 | – | – | CNC(=O)C(COC(=O)Cc1ccc(NC(=O)c2ccccc2-c2ccc(C(F)(F)F)cc2)cc1)(C(=O)NC)c1ccccc1 [Example 1-36]
860 | 0.43 | – | – | CCOC(=O)C(COC(=O)Cc1ccc(NC(=O)c2ccccc2-c2cccc(C(F)(F)F)c2)cc1)(C(=O)OCC)c1ccccc1 [Example 1-53]
8.9 | 1.8 | – | – | CCNC(=O)C(COC(=O)Cc1ccc(NC(=O)c2ccccc2-c2ccc(C(F)(F)F)cc2)c(C(=O)N(C)C)c1)c1ccccc1 (centres unmarked) [Example 2-21]
– | – | > 10000 | > 1000 | O=C(O)Cc1ccc(NC(=O)c2ccccc2-c2ccc(C(F)(F)F)cc2)cc1
5.3 | 20 | – | – | CCCNC(=O)C(CCOC(=O)Cc1ccc(NC(=O)c2ccccc2-c2ccc(C(F)(F)F)cc2)cc1)(C(=O)NCCC)c1ccccc1 [Example 1-49]
640 | 35 | – | – | O=C(Cc1ccc(OC(=O)c2ccccc2-c2ccc(C(F)(F)F)cc2)cc1)OCC(C(=O)NCC(F)(F)F)(C(=O)NCC(F)(F)F)c1ccccc1 [Example 1-28]
120 | 1.8 | – | – | CCNC(=O)C(COC(=O)Cc1ccc(NC(=O)c2ccccc2-c2ccc(Cl)c(Cl)c2)cc1)(C(=O)NCC)c1ccccc1 [Example 1-71]
875 | 66.5 | – | – | CCOC(=O)C(COC(=O)Cc1cccc(NC(=O)c2ccccc2-c2ccc(C(F)(F)F)cc2)c1)(C(=O)OCC)c1ccccc1 [Example 5-2]
3.2 | 5.95 | – | – | CCOC(=O)C(COC(=O)Cc1ccc(NC(=O)c2ccccc2-c2ccc(C(F)(F)F)cc2)cc1)(C(=O)OCC)c1ccccc1 [Example 1-9]
26 | 7 | – | – | CCOC(=O)C(COC(=O)Cc1ccc(NC(=O)c2ccccc2-c2ccc(C(F)(F)F)cc2)cc1C)(C(=O)OCC)c1ccccc1 [Example 1-27]
420 | 2.3 | – | – | CCOC(=O)C(CCOC(=O)c1ccc(OC(=O)c2ccccc2-c2ccc(C(F)(F)F)cc2)cc1)(C(=O)OCC)c1ccccc1 [Example 6-17]
64 | 13 | – | – | CCOC(=O)C(COC(=O)Cc1ccc(NC(=O)c2ccccc2-c2ccc(C(F)(F)F)cc2)c(OCc2ccccc2)c1)(C(=O)OCC)c1ccccc1 [Example 3-14]
180 | 66.5 | – | – | O=C(Cc1ccc(NC(=O)c2ccccc2-c2ccc(C(F)(F)F)cc2)cc1)OCC(C(=O)OC1CCCCC1)(C(=O)OC1CCCCC1)c1ccccc1 [Example 1-22]
90 | 16 | – | – | CC(C)COC(=O)C(COC(=O)Cc1ccc(NC(=O)c2ccccc2-c2ccc(C(F)(F)F)cc2)cc1)(C(=O)OCC(C)C)c1ccccc1 [Example 1-63]
530 | 0.96 | – | – | CCNC(=O)C(COC(=O)Cc1ccc(NC(=O)c2ccccc2Oc2ccccc2)cc1)(C(=O)NCC)c1ccccc1 [Example 1-51]
46 | 5 | – | – | CCCOC(=O)C(COC(=O)Cc1ccc(NC(=O)c2ccccc2-c2ccc(C(F)(F)F)cc2)cc1)(C(=O)OCCC)c1ccccc1 [Example 1-62]
300 | 6.2 | – | – | CCNC(=O)C(CCCOC(=O)Cc1cccc(NC(=O)c2ccccc2-c2ccc(C(F)(F)F)cc2)c1C)(C(=O)NCC)c1ccccc1 [Example 5-10]
– | – | > 10000 | > 10000 | CN(C)C(=O)c1cc(CC(=O)O)ccc1NC(=O)c1ccccc1-c1ccc(C(F)(F)F)cc1

SMILES | IC50 (HepG2 cells; [2]) [nM] | IC50 [1, 3] [nM] | IC50 (HepG2 cells; [4]) [nM] | IC50 [1, 5] [nM]
CCOC(=O)C(COC(=O)Cn1c(C)nc2c(NC(=O)c3ccccc3-c3ccc(C(F)(F)F)cc3)cccc21)(C(=O)OCC)c1ccccc1 [Example 9-2, 2-(2-{2-methyl-4-[(4′-trifluoromethylbiphenyl-2-carbonyl}amino]benzimidazol-1-yl}acetoxymethyl)-2-phenyl-malonic acid diethyl ester] | 450 | 4.2 | – | –
